This passage reports EC50 results from patent US20260265233A1, “BENZOTHIOPHENE DERIVATIVES AS RXFP1 AGONISTS” (BRISTOL-MYERS SQUIBB COMPANY, priority 2021, published 2026).

In the assay the target is T1, human RXFP1 (Homo sapiens, UniProt Q9HBX9).
T1 construct: expressed in transfected cells
T1 sequence (Q9HBX9 1-757): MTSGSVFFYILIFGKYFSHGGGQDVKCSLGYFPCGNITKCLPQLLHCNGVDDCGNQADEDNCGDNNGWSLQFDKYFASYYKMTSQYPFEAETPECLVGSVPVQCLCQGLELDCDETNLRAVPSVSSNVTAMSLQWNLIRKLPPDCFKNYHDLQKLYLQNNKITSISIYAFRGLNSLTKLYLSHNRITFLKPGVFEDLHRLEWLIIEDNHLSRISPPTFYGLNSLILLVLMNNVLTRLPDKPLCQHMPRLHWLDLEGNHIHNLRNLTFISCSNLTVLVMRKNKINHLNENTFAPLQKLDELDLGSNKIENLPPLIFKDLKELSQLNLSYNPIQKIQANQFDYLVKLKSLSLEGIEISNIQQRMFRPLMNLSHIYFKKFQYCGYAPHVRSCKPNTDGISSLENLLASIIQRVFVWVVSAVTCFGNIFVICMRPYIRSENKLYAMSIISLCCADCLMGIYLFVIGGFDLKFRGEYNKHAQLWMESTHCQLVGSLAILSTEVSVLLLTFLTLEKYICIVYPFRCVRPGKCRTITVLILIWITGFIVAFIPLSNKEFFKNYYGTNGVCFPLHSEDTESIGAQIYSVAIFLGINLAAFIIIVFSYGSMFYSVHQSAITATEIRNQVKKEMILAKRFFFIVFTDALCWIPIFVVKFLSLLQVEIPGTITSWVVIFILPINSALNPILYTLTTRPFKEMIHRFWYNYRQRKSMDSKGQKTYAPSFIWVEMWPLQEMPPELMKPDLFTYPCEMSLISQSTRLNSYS
Put plainly: hRXFP1 HEK293 cAMP assay (HTRF). Format: cell-based. The following applies: HEK293 cells stably expressing human RXFP1; 30 min at rt; intracellular cAMP by HTRF. Put shortly:
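Agonism is measured as cAMP by HTRF, quantified from a standard curve via the 665/590 nm ratio and fitted with a four-parameter logistic equation. Compounds (0.010 nM to 50 μM final, 2% DMSO) were applied for 30 min at rt to human RXFP1-expressing HEK293 cells in assay buffer containing 0.5 mM IBMX.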
As to `COc1ccc(C2CC2C(=O)NCC(C)(C)O)cc1C(=O)Nc1c(C(=O)Nc2ccc(F)c(C(F)(F)F)c2)sc2cc(C(F)(F)F)ccc12` (centres unmarked) [Example 166, N-[4-fluoro-3-(trifluoromethyl)phenyl]-3-(5-{2-[(2-hydroxy-2-methylpropyl)carbamoyl]cyclopropyl}-2-methoxy-benzamido)-6-(trifluoromethyl)-1-benzothiophene-2-carboxamide], a half-maximal response (EC50) required 1.63 µM. As for `COc1ccc(C2CC2C(=O)N2CC(OC)C2)cc1C(=O)Nc1c(C(=O)Nc2ccc(F)c(C(F)(F)F)c2)sc2cc(C(F)(F)F)ccc12` (centres unmarked) [Example 167, N-[4-fluoro-3-(trifluoromethyl)phenyl]-3-{2-methoxy-5-[2-(3-methoxyazetidine-1-carbonyl)cyclopropyl]benzamido}-6-(trifluoromethyl)-1-benzothiophene-2-carboxamide], the response was half-maximal at 0.4 µM (EC50). With `COc1ccc(C2CC2C(=O)N2CC(C(C)(C)O)C2)cc1C(=O)Nc1c(C(=O)Nc2ccc(F)c(C(F)(F)F)c2)sc2cc(C(F)(F)F)ccc12` (centres unmarked) [Example 169, N-[4-fluoro-3-(trifluoromethyl)phenyl]-3-(5-{2-[3-(2-hydroxypropan-2-yl)azetidine-1-carbonyl]cyclopropyl}-2-methoxy-benzamido)-6-(trifluoromethyl)-1-benzothiophene-2-carboxamide], the EC50 – broadly, the concentration that produces a half-maximal response – amounted to 2.25 µM. For the molecule `COc1ccc(C2CC2C(=O)NCC(C)(C)O)cc1C(=O)Nc1c(C(=O)Nc2ccc(F)c(C(F)(F)F)c2)sc2cc(C(F)(F)F)ccc12` (centres unmarked) [Example 170, N-[4-fluoro-3-(trifluoromethyl)phenyl]-3-(5-{2-[(2-hydroxy-2-methylpropyl)carbamoyl]cyclopropyl}-2-methoxy-benzamido)-6-(trifluoromethyl)-1-benzothiophene-2-carboxamide], the EC50 stood at 1.1 µM. Turning to `COc1ncc(C(=O)NCC2(S(C)(=O)=O)CC2)cc1C(=O)Nc1c(C(=O)Nc2ccc(F)c(C(F)(F)F)c2)sc2cc(C(F)(F)F)ccc12` [Example 171, N3-(2-((4-fluoro-3-(trifluoromethyl)phenyl)carbamoyl)-6-(trifluoromethyl)benzo[b]thiophen-3-yl)-2-methoxy-N5-((1-(methylsulfonyl)cyclopropyl)methyl) pyridine-3,5-dicarboxamide], the 50% effective concentration (EC50) came to 0.0091 µM. The molecule `COc1ncc(C(=O)N2CC3(COC3)C2)cc1C(=O)Nc1c(C(=O)Nc2ccc(F)c(C(F)(F)F)c2)sc2cc(C(F)(F)F)ccc12` [Example 172, N-(2-((4-fluoro-3-(trifluoromethyl)phenyl)carbamoyl)-6-(trifluoromethyl)benzo[b]thiophen-3-yl)-2-methoxy-5-(2-oxa-6-azaspiro[3.3]heptane-6-carbonyl) nicotinamide] returned a half-maximal effective concentration (EC50) of 0.701 µM. As for `COc1ncc(C(=O)N2CC(O)C2)cc1C(=O)Nc1c(C(=O)Nc2ccc(F)c(C(F)(F)F)c2)sc2cc(C(F)(F)F)ccc12` [Example 173, N-(2-((4-fluoro-3-(trifluoromethyl)phenyl)carbamoyl)-6-(trifluoromethyl)benzo[b]thiophen-3-yl)-5-(3-hydroxyazetidine-1-carbonyl)-2-methoxy-nicotinamide], the EC50 was 0.179 µM. With `COc1ccc(C(=O)N2CC[C@H](O)C2)cc1C(=O)Nc1c(C(=O)Nc2ccc(F)c(C(F)(F)F)c2)sc2cc(C(F)(F)F)ccc12` [Example 174, (S)-N-(4-fluoro-3-(trifluoromethyl)phenyl)-3-(5-(3-hydroxy-pyrrolidine-1-carbonyl)-2-methoxy-benzamido)-6-(trifluoromethyl) benzo[b] thiophene-2-carboxamide], the concentration for a half-maximal effect (EC50) was 0.405 µM.

`COc1ccc(C(=O)N2CC[C@@H](O)C2)cc1C(=O)Nc1c(C(=O)Nc2ccc(F)c(C(F)(F)F)c2)sc2cc(C(F)(F)F)ccc12` [Example 175, (R)-N-(4-fluoro-3-(trifluoromethyl)phenyl)-3-(5-(3-hydroxy-pyrrolidine-1-carbonyl)-2-methoxy-benzamido)-6-(trifluoromethyl) benzo[b] thiophene-2-carboxamide] gave a 50% effective concentration (EC50) of 0.374 µM. The figure for `COc1ccc(C(=O)N2CCC(CO)CC2)cc1C(=O)Nc1c(C(=O)Nc2ccc(F)c(C(F)(F)F)c2)sc2cc(C(F)(F)F)ccc12` [Example 176, N-(4-fluoro-3-(trifluoromethyl)phenyl)-3-(5-(4-(hydroxymethyl)piperidine-1-carbonyl)-2-methoxy-benzamido)-6-(trifluoromethyl) benzo[b] thiophene-2-carboxamide] is 0.279 µM; for `COc1ccc(C(=O)N2CC(CO)C2)cc1C(=O)Nc1c(C(=O)Nc2ccc(F)c(C(F)(F)F)c2)sc2cc(C(F)(F)F)ccc12` [Example 177, N-(4-fluoro-3-(trifluoromethyl)phenyl)-3-(5-(3-(hydroxymethyl)azetidine-1-carbonyl)-2-methoxy-benzamido)-6-(trifluoromethyl) benzo[b] thiophene-2-carboxamide] it is 0.147 µM. Turning to `COc1ccc(C(=O)N2CC(S(C)(=O)=O)C2)cc1C(=O)Nc1c(C(=O)Nc2ccc(F)c(C(F)(F)F)c2)sc2cc(C(F)(F)F)ccc12` [Example 178, N-(4-fluoro-3-(trifluoromethyl)phenyl)-3-(2-methoxy-5-(3-(methylsulfonyl)azetidine-1-carbonyl)benzamido)-6-(trifluoromethyl) benzo[b] thiophene-2-carboxamide], it took 0.0052 µM to reach a half-maximal effect (EC50). In the case of `COc1ccc(C(=O)N2CC(C(C)(C)O)C2)cc1C(=O)Nc1c(C(=O)Nc2ccc(F)c(C(F)(F)F)c2)sc2cc(C(F)(F)F)ccc12` [Example 179, N-(4-fluoro-3-(trifluoromethyl)phenyl)-3-(5-(3-(2-hydroxypropan-2-yl)azetidine-1-carbonyl)-2-methoxy-benzamido)-6-(trifluoromethyl) benzo[b] thiophene-2-carboxamide], the EC50 was 0.179 µM. In turn, `COc1ccc(C(=O)N2CC(C)(O)C2)cc1C(=O)Nc1c(C(=O)Nc2ccc(F)c(C(F)(F)F)c2)sc2cc(C(F)(F)F)ccc12` [Example 180, N-(4-fluoro-3-(trifluoromethyl)phenyl)-3-(5-(3-hydroxy-3-methylazetidine-1-carbonyl)-2-methoxy-benzamido)-6-(trifluoromethyl) benzo[b] thiophene-2-carboxamide] showed an EC50 of 0.145 µM.

The molecule `COc1ccc(C(=O)N2CC3(COC3)C2)cc1C(=O)Nc1c(C(=O)Nc2ccc(F)c(C(F)(F)F)c2)sc2cc(C(F)(F)F)ccc12` [Example 181, N-(4-fluoro-3-(trifluoromethyl)phenyl)-3-(2-methoxy-5-(2-oxa-6-azaspiro[3.3]heptane-6-carbonyl)benzamido)-6-(trifluoromethyl) benzo[b] thiophene-2-carboxamide] came in with an EC50 of 0.544 µM. `COc1cc(F)c(C(=O)N2CC(C(C)(C)O)C2)cc1C(=O)Nc1c(C(=O)Nc2ccc(F)c(C(F)(F)F)c2)sc2cc(C(F)(F)F)ccc12` [Example 182, N-(4-fluoro-3-(trifluoromethyl)phenyl)-3-(4-fluoro-5-(3-(2-hydroxypropan-2-yl)azetidine-1-carbonyl)-2-methoxy-benzamido)-6-(trifluoromethyl) benzo[b] thiophene-2-carboxamide]: the EC50 worked out at 0.357 µM.

Regarding `COc1cc(F)c(C(=O)N2CC[C@@H](O)C2)cc1C(=O)Nc1c(C(=O)Nc2ccc(F)c(C(F)(F)F)c2)sc2cc(C(F)(F)F)ccc12` [Example 183, (R)-N-(4-fluoro-3-(trifluoromethyl)phenyl)-3-(4-fluoro-5-(3-hydroxy-pyrrolidine-1-carbonyl)-2-methoxy-benzamido)-6-(trifluoromethyl) benzo[b] thiophene-2-carboxamide], the concentration giving a half-maximal response (EC50) was 0.823 µM. In the case of `COc1cc(F)c(C(=O)N2CCC(O)CC2)cc1C(=O)Nc1c(C(=O)Nc2ccc(F)c(C(F)(F)F)c2)sc2cc(C(F)(F)F)ccc12` [Example 184, N-(4-fluoro-3-(trifluoromethyl)phenyl)-3-(4-fluoro-5-(4-hydroxypiperidine-1-carbonyl)-2-methoxy-benzamido)-6-(trifluoromethyl) benzo[b] thiophene-2-carboxamide], the half-maximal effective concentration (EC50) worked out at 0.349 µM. For `COc1cc(F)c(C(=O)N2CC3(COC3)C2)cc1C(=O)Nc1c(C(=O)Nc2ccc(F)c(C(F)(F)F)c2)sc2cc(C(F)(F)F)ccc12` [Example 185, 3-(4-fluoro-2-methoxy-5-(2-oxa-6-azaspiro[3.3]heptane-6-carbonyl)benzamido)-N-(4-fluoro-3-(trifluoromethyl)phenyl)-6-(trifluoromethyl) benzo[b] thiophene-2-carboxamide], the 50% effective concentration (EC50) came to 0.736 µM. In turn, `COc1cc(F)c(C(=O)NCC2(S(C)(=O)=O)CC2)cc1C(=O)Nc1c(C(=O)Nc2ccc(F)c(C(F)(F)F)c2)sc2cc(C(F)(F)F)ccc12` [Example 186, 4-fluoro-N1-(2-((4-fluoro-3-(trifluoromethyl)phenyl)carbamoyl)-6-(trifluoromethyl)benzo[b]thiophen-3-yl)-6-methoxy-N3-((1-(methylsulfonyl)cyclopropyl)methyl) isophthalamide] showed an EC50 of 0.102 µM.
